Results: ChEMBL document CHEMBL1201862, “PubChem BioAssay data set” (2004)
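Grown in 96-well plates, cells were treated for 48 hours with each compound at five concentrations. Insufficient inhibition: endpoint recorded as highest concentration tested. The concentration for 50% growth inhibition is given as GI50.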 Activity calls are given as the source filed them. Rule as the data show it: active = GI50 up to about 1.1 µM and inactive = higher.

How the values were obtained:
Test in all cases: growth of human tumour cells (NCI), 48 h
NCI-H460 = tested on: NCI-H460
U-251 = tested on: U-251
SF-268 = tested on: SF-268
NCI/ADR-RES = tested on: NCI/ADR-RES
A549 = tested on: A549
HOP-62 = tested on: HOP-62
T47D = tested on: T47D
K562 = tested on: K562
SW-620 = tested on: SW-620
LOX IMVI = tested on: LOX IMVI
786-0 = tested on: 786-0
OVCAR-3 = tested on: OVCAR-3
OVCAR-4 = tested on: OVCAR-4
HCT-15 = tested on: HCT-15
NCI-H522 = tested on: NCI-H522
SK-OV-3 = tested on: SK-OV-3
HCC 2998 = tested on: HCC 2998
UACC-257 = tested on: UACC-257
SR = tested on: SR
OVCAR-5 = tested on: OVCAR-5

Row | Compound | GI50 (NCI-H460) | GI50 (U-251) | GI50 (SF-268) | GI50 (NCI/ADR-RES) | GI50 (A549) | GI50 (HOP-62) | GI50 (T47D) | GI50 (K562) | GI50 (SW-620) | GI50 (LOX IMVI) | GI50 (786-0) | GI50 (OVCAR-3) | GI50 (OVCAR-4) | GI50 (HCT-15) [µM] | GI50 (NCI-H522) | GI50 (SK-OV-3) | GI50 (HCC 2998) | GI50 (UACC-257) | GI50 (SR) | GI50 (OVCAR-5)
1 | C[N+]1(Cc2ccc(Cl)c(Cl)c2)CCCC1C1CCCN(Cc2ccc(Cl)c(Cl)c2)C1 (stereo not given) | > 100 µM (inactive) | > 100 µM (inactive) | > 100 µM (inactive) | > 100 µM (inactive) | > 100 µM (inactive) | > 100 µM (inactive) | > 100 µM (inactive) | 52.4 µM (inactive) | > 100 µM (inactive) | > 100 µM (inactive) | > 100 µM (inactive) | > 100 µM (inactive) | > 100 µM (inactive) | > 100 | > 100 µM (inactive) | > 100 µM (inactive) | > 100 µM (inactive) | > 100 µM (inactive) | > 100 µM (inactive) | > 100 µM (inactive)
2 | C[C@H](CCC(=O)O)[C@H]1CC[C@H]2[C@@H]3[C@H](O)C[C@@H]4C[C@H](O)CC[C@]4(C)[C@H]3C[C@H](O)[C@]12C | > 100 µM (inactive) | > 100 µM (inactive) | > 100 µM (inactive) | > 100 µM (inactive) | > 100 µM (inactive) | > 100 µM (inactive) | > 100 µM (inactive) | > 100 µM (inactive) | > 100 µM (inactive) | > 100 µM (inactive) | > 100 µM (inactive) | > 100 µM (inactive) | > 100 µM (inactive) | > 100 | > 100 µM (inactive) | > 100 µM (inactive) | > 100 µM (inactive) | > 100 µM (inactive) | > 100 µM (inactive) | > 100 µM (inactive)
3 | Clc1sc(Cl)c2c1[C@H](Cl)C[C@@H]2Cl | 49.2 µM (inactive) | 20.9 µM (inactive) | 17.8 µM (inactive) | 15.9 µM (inactive) | 21.2 µM (inactive) | 38.5 µM (inactive) | 17.6 µM (inactive) | 6 µM (inactive) | 3.87 µM (inactive) | 9.46 µM (inactive) | 19.6 µM (inactive) | 24.2 µM (inactive) | 23.6 µM (inactive) | 20.2 | 1.07 µM (active) | 54 µM (inactive) | 15.2 µM (inactive) | 24.3 µM (inactive) | 58.9 µM (inactive) | 29.2 µM (inactive)
4 | COc1ccc2c3c([nH]c2c1)CCN(CCCC(=O)c1ccc(F)cc1)C3 | 19.4 µM (inactive) | 17.2 µM (inactive) | 16.8 µM (inactive) | 18.6 µM (inactive) | 17.1 µM (inactive) | 12.2 µM (inactive) | 19 µM (inactive) | 16.6 µM (inactive) | 17 µM (inactive) | 12.7 µM (inactive) | 14.1 µM (inactive) | 18.8 µM (inactive) | 16.8 µM (inactive) | 20.1 | 23.3 µM (inactive) | 19.4 µM (inactive) | 5.53 µM (inactive) | 17.6 µM (inactive) | 18 µM (inactive) | 13.8 µM (inactive)
5 | S=C1Cc2cc3ccccc3nc2-c2ccccc2N1 | 15.1 µM (inactive) | 13.7 µM (inactive) | 7.01 µM (inactive) | 10.1 µM (inactive) | 26.1 µM (inactive) | 11.6 µM (inactive) | 8.3 µM (inactive) | > 100 µM (inactive) | 37 µM (inactive) | 33.4 µM (inactive) | 12.6 µM (inactive) | 9.57 µM (inactive) | 12.4 µM (inactive) | 42.3 | 24.9 µM (inactive) | 5.68 µM (inactive) | 16.2 µM (inactive) | 29.1 µM (inactive) | 29 µM (inactive) | 51.2 µM (inactive)
6 | O=C(Cc1ccccc1)NCCc1ccc(O)c(O)c1 | > 100 µM (inactive) | 78.7 µM (inactive) | 63.1 µM (inactive) | > 100 µM (inactive) | > 100 µM (inactive) | > 100 µM (inactive) | > 100 µM (inactive) | 17.9 µM (inactive) | > 100 µM (inactive) | 44.7 µM (inactive) | 93.3 µM (inactive) | 35 µM (inactive) | 13 µM (inactive) | 54.1 | 28.4 µM (inactive) | > 100 µM (inactive) | > 100 µM (inactive) | > 100 µM (inactive) | 23.3 µM (inactive) | > 100 µM (inactive)
7 | CC1=C(C(=O)OC(C)C)C(c2ccccc2[N+](=O)[O-])C(C(=O)OC(CO[N+](=O)[O-])CO[N+](=O)[O-])=C(C)N1 (stereo not given) | 3.1 µM (inactive) | 2.99 µM (inactive) | 2.51 µM (inactive) | 3.27 µM (inactive) | 3.09 µM (inactive) | 3.07 µM (inactive) | 4.99 µM (inactive) | 2.81 µM (inactive) | 4.03 µM (inactive) | 2.68 µM (inactive) | 3.62 µM (inactive) | 6.49 µM (inactive) | 2.12 µM (inactive) | 3.08 | 2.42 µM (inactive) | 3.15 µM (inactive) | 5.83 µM (inactive) | 3.85 µM (inactive) | 18.6 µM (inactive) | 13.8 µM (inactive)
